US20250145603A1, “CRYSTAL FORMS OF AN ANTI-RSV AGENT” (Enanta Pharmaceuticals, Inc., priority 2023, published 2025)
In brackets after ≈: the same amount, converted by molar mass. Entries after “also recorded” stand apart in the source; their conditions may differ.

Key:
[1] = Hygroscopicity by DVS (Dynamic Vapor Sorption); format: physicochemical
[2] = Physical stability and conversion of solid forms (polymorph screen)
[3] = Solubility of Form A in water; format: physicochemical
[4] = Solubility of Form A in organic solvents; format: physicochemical

O=C1Nc2ccccc2C(c2ccccc2)=N[C@@H]1Nc1nnc(-c2ncc(C(F)(F)F)cc2N2CCOCC2)o1 [Amorphous]
hygroscopicity [1]: Appeared non-hygroscopic
conversion to another solid form [2]: Crystallizes to A

O=C1Nc2ccccc2C(c2ccccc2)=N[C@@H]1Nc1nnc(-c2ncc(C(F)(F)F)cc2N2CCOCC2)o1 [Form A]
hygroscopicity [1]: not hygroscopic; also recorded: Anhydrous/unsolvated, non-hygroscopic
weight gain during adsorption ([1]; DVS, adsorption to 95% RH): 0.1 wt %
moisture loss on desorption ([1]; DVS, desorption to 5% RH): losing all of the gained moisture
solubility ([3]; aqueous buffer, from pH 4-8): ~2 µg/mL (≈ 3.64 µM)
solubility ([3]; simulated gastric fluid, at pH 1): 13.3 µg/mL (≈ 24.2 µM)
solubility in organic solvents ([4]; alcohols, ethyl acetate, acetonitrile): relatively poor solubility
solubility in organic solvents ([4]; dichloromethane, 1,4-dioxane, tetrahydrofuran, acetone): highly soluble

O=C1Nc2ccccc2C(c2ccccc2)=N[C@@H]1Nc1nnc(-c2ncc(C(F)(F)F)cc2N2CCOCC2)o1 [Form D]
conversion to another solid form [2]: converts to Form F upon air drying

O=C1Nc2ccccc2C(c2ccccc2)=N[C@@H]1Nc1nnc(-c2ncc(C(F)(F)F)cc2N2CCOCC2)o1 [Form F]
conversion to another solid form [2]: Converts to G in ethyl acetate

O=C1Nc2ccccc2C(c2ccccc2)=N[C@@H]1Nc1nnc(-c2ncc(C(F)(F)F)cc2N2CCOCC2)o1 [Form G]
physical stability of solid form [2]: physically stable at ambient temperature

O=C1Nc2ccccc2C(c2ccccc2)=N[C@@H]1Nc1nnc(-c2ncc(C(F)(F)F)cc2N2CCOCC2)o1 [Material C]
conversion to another solid form [2]: desolvate readily to Form A; also recorded: Likely converts to A on drying
